According to patent publication US11123337B2, “4-methylsulfonyl-substituted piperidine urea compounds” (MYOKARDIA, INC., priority 2015, dated 2021):

Target: bovine cardiac myosin (Bos taurus, UniProt Q9BE39)
Experiment: Myosin activation assay (PK/LDH-coupled ATPase, bovine cardiac myofibrils)
Assay type: biochemical
Conditions: AC20 = concentration at which total response is increased by twenty percent
Procedure, shortened: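 Skinned bovine cardiac myofibrils (1 mg/mL) in PIPES/MgCl2 buffer pH 6.8 at free Ca2+ giving ~50% (pCa ~6) or <5% (pCa 10) activation, with 50 μM ATP and 3.3% DMSO. ATPase rate from NADH absorbance at 340 nm (PK/LDH coupling) over 15 min at ambient temperature. AC20/AC50 from a four-parameter fit of DMSO-normalised rates.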

Chain of bovine cardiac myosin (Q9BE39 whole entry): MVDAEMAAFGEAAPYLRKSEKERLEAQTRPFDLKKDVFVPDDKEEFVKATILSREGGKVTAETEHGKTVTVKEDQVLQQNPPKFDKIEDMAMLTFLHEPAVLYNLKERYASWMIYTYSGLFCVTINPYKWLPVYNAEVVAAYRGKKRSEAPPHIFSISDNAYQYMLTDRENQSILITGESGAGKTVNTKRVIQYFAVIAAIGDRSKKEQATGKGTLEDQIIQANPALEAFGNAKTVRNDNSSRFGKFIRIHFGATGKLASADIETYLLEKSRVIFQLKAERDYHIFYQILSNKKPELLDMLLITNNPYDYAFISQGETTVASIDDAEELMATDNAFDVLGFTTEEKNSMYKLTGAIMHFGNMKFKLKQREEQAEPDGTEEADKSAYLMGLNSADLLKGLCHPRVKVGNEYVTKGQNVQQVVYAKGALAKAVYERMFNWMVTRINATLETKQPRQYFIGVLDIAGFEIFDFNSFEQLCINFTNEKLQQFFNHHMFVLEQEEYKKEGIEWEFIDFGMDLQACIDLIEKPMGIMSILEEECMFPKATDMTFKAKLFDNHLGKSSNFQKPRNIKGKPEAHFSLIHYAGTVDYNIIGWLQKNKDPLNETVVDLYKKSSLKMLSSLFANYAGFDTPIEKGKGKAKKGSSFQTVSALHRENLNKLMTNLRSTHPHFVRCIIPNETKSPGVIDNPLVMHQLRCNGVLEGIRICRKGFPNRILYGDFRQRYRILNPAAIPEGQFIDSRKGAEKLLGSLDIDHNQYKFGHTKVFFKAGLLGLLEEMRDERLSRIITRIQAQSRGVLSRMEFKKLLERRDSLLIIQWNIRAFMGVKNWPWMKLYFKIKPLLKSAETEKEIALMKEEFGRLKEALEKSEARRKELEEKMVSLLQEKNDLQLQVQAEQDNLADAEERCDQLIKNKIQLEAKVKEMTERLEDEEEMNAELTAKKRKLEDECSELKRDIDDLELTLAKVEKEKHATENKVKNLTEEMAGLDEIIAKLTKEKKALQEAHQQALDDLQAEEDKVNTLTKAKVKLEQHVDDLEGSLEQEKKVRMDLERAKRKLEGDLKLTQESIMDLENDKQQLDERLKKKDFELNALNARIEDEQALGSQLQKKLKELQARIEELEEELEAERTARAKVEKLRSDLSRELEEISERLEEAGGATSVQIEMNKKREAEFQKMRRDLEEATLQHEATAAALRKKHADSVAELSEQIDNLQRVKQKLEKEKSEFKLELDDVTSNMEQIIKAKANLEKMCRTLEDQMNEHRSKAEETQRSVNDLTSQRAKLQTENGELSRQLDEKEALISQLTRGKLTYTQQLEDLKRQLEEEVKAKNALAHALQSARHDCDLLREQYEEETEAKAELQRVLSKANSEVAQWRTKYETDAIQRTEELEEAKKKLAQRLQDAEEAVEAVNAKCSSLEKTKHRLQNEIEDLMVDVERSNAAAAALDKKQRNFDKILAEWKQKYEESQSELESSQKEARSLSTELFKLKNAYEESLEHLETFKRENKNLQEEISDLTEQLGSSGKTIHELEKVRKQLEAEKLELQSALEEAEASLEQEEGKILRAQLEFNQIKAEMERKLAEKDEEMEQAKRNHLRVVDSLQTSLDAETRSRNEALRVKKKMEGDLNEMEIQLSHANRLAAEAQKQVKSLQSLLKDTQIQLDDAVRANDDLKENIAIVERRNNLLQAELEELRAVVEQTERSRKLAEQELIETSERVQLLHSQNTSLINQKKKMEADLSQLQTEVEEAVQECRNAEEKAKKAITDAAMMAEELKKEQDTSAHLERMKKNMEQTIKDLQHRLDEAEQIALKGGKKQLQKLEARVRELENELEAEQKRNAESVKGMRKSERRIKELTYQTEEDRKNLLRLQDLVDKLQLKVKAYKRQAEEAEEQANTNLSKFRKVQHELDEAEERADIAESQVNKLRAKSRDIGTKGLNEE
Chain of bovine cardiac myosin (P85100 whole entry partner): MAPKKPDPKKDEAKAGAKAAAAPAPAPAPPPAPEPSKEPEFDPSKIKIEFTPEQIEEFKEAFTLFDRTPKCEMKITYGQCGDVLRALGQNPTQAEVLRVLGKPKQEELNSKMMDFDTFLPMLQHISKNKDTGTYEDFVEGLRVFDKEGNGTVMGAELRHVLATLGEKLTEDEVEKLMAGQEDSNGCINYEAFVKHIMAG
Chain of bovine cardiac myosin (Q3SZE5 whole entry partner): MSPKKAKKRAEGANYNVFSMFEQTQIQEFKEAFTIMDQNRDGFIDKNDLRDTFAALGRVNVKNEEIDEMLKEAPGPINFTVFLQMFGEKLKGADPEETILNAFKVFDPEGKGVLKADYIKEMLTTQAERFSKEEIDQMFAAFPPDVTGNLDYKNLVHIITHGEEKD

SMILES	Myosin Activation (AC20)
CC(C)(C1CCN(C(=O)Nc2ccnnc2)CC1)S(=O)(=O)c1ccc2ccnn2c1 [Compound 189, 4-(2-(pyrazolo[1,5-a]pyridin-6-ylsulfonyl)propan-2-yl)-N-(pyridazin-4-yl)piperidine-1-carboxamide]	+++ (+++ represents myosin activation value AC20 < 2 μM)
COc1ncccc1S(=O)(=O)C(C)(C)C1CCN(C(=O)Nc2ccnnc2)CC1 [Compound 190, 4-(2-((2-methoxypyridin-3-yl)sulfonyl)propan-2-yl)-N-(pyridazin-4-yl)piperidine-1-carboxamide]	++ (++ represents myosin activation value AC20 from 2 μM-5 μM)
CC(C)(C1CCN(C(=O)Nc2ccnnc2)CC1)S(=O)(=O)c1ccn2nccc2c1 [Compound 191, 4-(2-(pyrazolo[1,5-a]pyridin-5-ylsulfonyl)propan-2-yl)-N-(pyridazin-4-yl)piperidine-1-carboxamide]	+++ (+++ represents myosin activation value AC20 < 2 μM)
Cn1nccc1S(=O)(=O)C(C)(C)C1CCN(C(=O)Nc2ccnnc2)CC1 [Compound 192, 4-(2-((1-methyl-1H-pyrazol-5-yl)sulfonyl)propan-2-yl)-N-(pyridazin-4-yl)piperidine-1-carboxamide]	+++ (+++ represents myosin activation value AC20 < 2 μM)
Cn1nccc1S(=O)(=O)C(C)(C)C1CCN(C(=O)Nc2cnns2)CC1 [Compound 193, 4-(2-((1-methyl-1H-pyrazol-5-yl)sulfonyl)propan-2-yl)-N-(1,2,3-thiadiazol-5-yl)piperidine-1-carboxamide]	+++ (+++ represents myosin activation value AC20 < 2 μM)
Cn1nccc1S(=O)(=O)C(C)(C)C1CCN(C(=O)Nc2ccncc2)CC1 [Compound 194, 4-(2-((1-methyl-1H-pyrazol-5-yl)sulfonyl)propan-2-yl)-N-(pyridin-4-yl)piperidine-1-carboxamide]	++ (++ represents myosin activation value AC20 from 2 μM-5 μM)
CC(C)(C1CCN(C(=O)Nc2ccnnc2)CC1)S(=O)(=O)c1ccccc1C(F)(F)F [Compound 195, N-(pyridazin-4-yl)-4-(2-((2-(trifluoromethyl)phenyl)sulfonyl)propan-2-yl)piperidine-1-carboxamide]	++ (++ represents myosin activation value AC20 from 2 μM-5 μM)
Cc1cc(C#N)ccc1S(=O)(=O)C(C)(C)C1CCN(C(=O)Nc2ccnnc2)CC1 [Compound 196, 4-(2-((4-cyano-2-methylphenyl)sulfonyl)propan-2-yl)-N-(pyridazin-4-yl)piperidine-1-carboxamide]	++ (++ represents myosin activation value AC20 from 2 μM-5 μM)
CC(C)(C1CCN(C(=O)Nc2ccnnc2)CC1)S(=O)(=O)c1ccccc1Cl [Compound 197, 4-(2-((2-chlorophenyl)sulfonyl)propan-2-yl)-N-(pyridazin-4-yl)piperidine-1-carboxamide]	+++ (+++ represents myosin activation value AC20 < 2 μM)
Cn1cc(S(=O)(=O)C(C)(C)C2CCN(C(=O)Nc3ccncc3)CC2)cn1 [Compound 198, 4-(2-((1-methyl-1H-pyrazol-4-yl)sulfonyl)propan-2-yl)-N-(pyridin-4-yl)piperidine-1-carboxamide]	+ (+ represents myosin activation value AC20 > 5 μM)
Cn1cc(S(=O)(=O)C(C)(C)C2CCN(C(=O)Nc3ccnnc3)CC2)cn1 [Compound 199, 4-(2-((1-methyl-1H-pyrazol-4-yl)sulfonyl)propan-2-yl)-N-(pyridazin-4-yl)piperidine-1-carboxamide]	+ (+ represents myosin activation value AC20 > 5 μM)
N#Cc1ccccc1S(=O)(=O)C1(C2CCN(C(=O)Nc3ccnnc3)CC2)CC1 [Compound 200, 4-(1-((2-cyanophenyl)sulfonyl)cyclopropyl)-N-(pyridazin-4-yl)piperidine-1-carboxamide]	++ (++ represents myosin activation value AC20 from 2 μM-5 μM)
CC(C)(C1CCN(C(=O)Nc2ccns2)CC1)S(=O)(=O)c1ccccc1C#N [Compound 201, 4-(2-((2-cyanophenyl)sulfonyl)propan-2-yl)-N-(isothiazol-5-yl)piperidine-1-carboxamide]	+ (+ represents myosin activation value AC20 > 5 μM)
Cc1ccccc1S(=O)(=O)C1(C2CCN(C(=O)Nc3ccncc3)CC2)CC1 [Compound 202, N-(pyridin-4-yl)-4-(1-(o-tolylsulfonyl)cyclopropyl)piperidine-1-carboxamide]	+++ (+++ represents myosin activation value AC20 < 2 μM)
O=C(Nc1ccns1)N1CCC(C2(S(=O)(=O)c3cc(F)cc(F)c3)CC2)CC1 [Compound 203, 4-(1-((3,5-difluorophenyl)sulfonyl)cyclopropyl)-N-(isothiazol-5-yl)piperidine-1-carboxamide]	+++ (+++ represents myosin activation value AC20 < 2 μM)
CC(C)(C1CCN(C(=O)Nc2ccnnc2)CC1)S(=O)(=O)c1ccccc1C#N [Compound 204, 4-(2-((2-cyanophenyl)sulfonyl)propan-2-yl)-N-(pyridazin-4-yl)piperidine-1-carboxamide]	+ (+ represents myosin activation value AC20 > 5 μM)

SMILES	Myosin Activation (AC20)
O=C(Nc1ccnnc1)N1CCC(C2(S(=O)(=O)c3ccc(OC(F)(F)F)cc3)CC2)CC1 [Compound 205, N-(pyridazin-4-yl)-4-(1-((4-(trifluoromethoxy)phenyl)sulfonyl)cyclopropyl)piperidine-1-carboxamide]	+++ (+++ represents myosin activation value AC20 < 2 μM)
O=C(Nc1ccncc1)N1CCC(C2(S(=O)(=O)c3ccc(OC(F)(F)F)cc3)CC2)CC1 [Compound 206, N-(pyridin-4-yl)-4-(1-((4-(trifluoromethoxy)phenyl)sulfonyl)cyclopropyl)piperidine-1-carboxamide]	+++ (+++ represents myosin activation value AC20 < 2 μM)
O=C(Nc1ccns1)N1CCC(C2(S(=O)(=O)c3ccc(OC(F)(F)F)cc3)CC2)CC1 [Compound 207, N-(isothiazol-5-yl)-4-(1-((4-(trifluoromethoxy)phenyl)sulfonyl)cyclopropyl)piperidine-1-carboxamide]	+++ (+++ represents myosin activation value AC20 < 2 μM)
CC(C)(C1CCN(C(=O)Nc2ccns2)CC1)S(=O)(=O)c1ccccc1Cl [Compound 208, 4-(2-((2-chlorophenyl)sulfonyl)propan-2-yl)-N-(isothiazol-5-yl)piperidine-1-carboxamide]	++ (++ represents myosin activation value AC20 from 2 μM-5 μM)
CC(C)(C1CCN(C(=O)Nc2ccncc2)CC1)S(=O)(=O)c1ccccc1C#N [Compound 209, 4-(2-((2-cyanophenyl)sulfonyl)propan-2-yl)-N-(pyridin-4-yl)piperidine-1-carboxamide]	++ (++ represents myosin activation value AC20 from 2 μM-5 μM)
CC(C)(C1CCN(C(=O)Nc2ccns2)CC1)S(=O)(=O)c1cc(F)cc(F)c1 [Compound 210, 4-(2-((3,5-difluorophenyl)sulfonyl)propan-2-yl)-N-(isothiazol-5-yl)piperidine-1-carboxamide]	+++ (+++ represents myosin activation value AC20 < 2 μM)
CC(C)(C1CCN(C(=O)Nc2cnns2)CC1)S(=O)(=O)c1cccc(F)c1 [Compound 211, 4-(2-((3-fluorophenyl)sulfonyl)propan-2-yl)-N-(1,2,3-thiadiazol-5-yl)piperidine-1-carboxamide]	+++ (+++ represents myosin activation value AC20 < 2 μM)
Cc1ccccc1S(=O)(=O)C(C)(C)C1CCN(C(=O)Nc2ccncc2)CC1 [Compound 212, N-(pyridin-4-yl)-4-(2-(o-tolylsulfonyl)propan-2-yl)piperidine-1-carboxamide]	+++ (+++ represents myosin activation value AC20 < 2 μM)
Cc1ccccc1S(=O)(=O)C(C)(C)C1CCN(C(=O)Nc2ccns2)CC1 [Compound 213, N-(isothiazol-5-yl)-4-(2-(o-tolylsulfonyl)propan-2-yl)piperidine-1-carboxamide]	+++ (+++ represents myosin activation value AC20 < 2 μM)
Cc1cnccc1NC(=O)N1CCC(C(C)(C)S(=O)(=O)c2cccc(F)c2)CC1 [Compound 214, 4-(2-((3-fluorophenyl)sulfonyl)propan-2-yl)-N-(3-methylpyridin-4-yl)piperidine-1-carboxamide]	+ (+ represents myosin activation value AC20 > 5 μM)
COc1ccccc1S(=O)(=O)C(C)(C)C1CCN(C(=O)Nc2ccns2)CC1 [Compound 215, N-(isothiazol-5-yl)-4-(2-((2-methoxyphenyl)sulfonyl)propan-2-yl)piperidine-1-carboxamide]	++ (++ represents myosin activation value AC20 from 2 μM-5 μM)
COc1ccccc1S(=O)(=O)C(C)(C)C1CCN(C(=O)Nc2ccncc2)CC1 [Compound 216, 4-(2-((2-methoxyphenyl)sulfonyl)propan-2-yl)-N-(pyridin-4-yl)piperidine-1-carboxamide]	+++ (+++ represents myosin activation value AC20 < 2 μM)
O=C(Nc1ccns1)N1CCC(C2(S(=O)(=O)c3cccc(F)c3)CC2)CC1 [Compound 217, 4-(1-((3-fluorophenyl)sulfonyl)cyclopropyl)-N-(isothiazol-5-yl)piperidine-1-carboxamide]	+++ (+++ represents myosin activation value AC20 < 2 μM)
CC(C)(C1CCN(C(=O)Nc2ccns2)CC1)S(=O)(=O)c1cccc(F)c1 [Compound 218, 4-(2-((3-fluorophenyl)sulfonyl)propan-2-yl)-N-(isothiazol-5-yl)piperidine-1-carboxamide]	++ (++ represents myosin activation value AC20 from 2 μM-5 μM)
CN(C(=O)N1CCC(C(C)(C)S(=O)(=O)c2cccc(F)c2)CC1)c1ccncc1 [Compound 219, 4-(2-((3-fluorophenyl)sulfonyl)propan-2-yl)-N-methyl-N-(pyridin-4-yl)piperidine-1-carboxamide]	+ (+ represents myosin activation value AC20 > 5 μM)
